According to patent US20150315188A1, “COMPOUNDS AND METHODS FOR TREATMENT OF HYPERTENSION” (MEDIVATION TECHNOLOGIES, INC., priority 2012, published 2015):

Experiments:
Set-up in all cases: purchased Milipore (Millipore)
[1] = biological target: T1, Human adrenergic α2A receptor (Homo sapiens, UniProt P08913); test: Radioligand binding, adrenergic α2A (Protocol Group B); settings: Protocol Group B
T1 sequence (P08913 1-465): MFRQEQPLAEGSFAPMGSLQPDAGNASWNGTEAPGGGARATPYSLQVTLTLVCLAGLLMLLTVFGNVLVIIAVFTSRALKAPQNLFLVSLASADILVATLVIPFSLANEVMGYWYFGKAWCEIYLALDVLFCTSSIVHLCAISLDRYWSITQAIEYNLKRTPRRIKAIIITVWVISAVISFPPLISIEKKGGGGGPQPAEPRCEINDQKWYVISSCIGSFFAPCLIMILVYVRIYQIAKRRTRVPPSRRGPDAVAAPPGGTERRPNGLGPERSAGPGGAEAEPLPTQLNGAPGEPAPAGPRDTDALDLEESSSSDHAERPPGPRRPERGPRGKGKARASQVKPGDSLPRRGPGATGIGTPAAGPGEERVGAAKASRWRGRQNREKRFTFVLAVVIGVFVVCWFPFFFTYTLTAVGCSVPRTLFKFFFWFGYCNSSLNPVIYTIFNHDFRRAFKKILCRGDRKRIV
Procedure, shortened: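 Membranes from recombinant cells expressing the receptor, in 50 mM Tris-HCl pH 7.4 with 5 mM MgCl2, 1 mM CaCl2, 0.2% BSA; compounds incubated with 2 nM [^3H]MK-912 for 60 min at 25° C. Nonspecific binding defined by 10 μM rauwolscine; filtration, counting; percent inhibition of specific binding, or estimated Ki.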

[2] = biological target: T2, Human adrenergic α2B receptor (Homo sapiens, UniProt P18089); test: Radioligand binding, adrenergic α2B (Protocol Group B); settings: Protocol Group B; for Percentage inhibition of ligand binding, Adrenergic α2B (30 nM) / inhibition at 0.03 µM: 30 nM compound; for Percentage inhibition of ligand binding, Adrenergic α2B (30 nM): 0.03 µM; for Percentage inhibition of ligand binding, Adrenergic α2B (0.1 μM) / inhibition at 0.1 µM: 0.1 μM compound; for inhibition at 0.03 µM: read-out: Percentage inhibition of ligand binding, Adrenergic α2B (30 nM); for inhibition at 0.1 µM: read-out: Percentage inhibition of ligand binding, Adrenergic α2B (0.1 μM)
T2 sequence (P18089 1-450): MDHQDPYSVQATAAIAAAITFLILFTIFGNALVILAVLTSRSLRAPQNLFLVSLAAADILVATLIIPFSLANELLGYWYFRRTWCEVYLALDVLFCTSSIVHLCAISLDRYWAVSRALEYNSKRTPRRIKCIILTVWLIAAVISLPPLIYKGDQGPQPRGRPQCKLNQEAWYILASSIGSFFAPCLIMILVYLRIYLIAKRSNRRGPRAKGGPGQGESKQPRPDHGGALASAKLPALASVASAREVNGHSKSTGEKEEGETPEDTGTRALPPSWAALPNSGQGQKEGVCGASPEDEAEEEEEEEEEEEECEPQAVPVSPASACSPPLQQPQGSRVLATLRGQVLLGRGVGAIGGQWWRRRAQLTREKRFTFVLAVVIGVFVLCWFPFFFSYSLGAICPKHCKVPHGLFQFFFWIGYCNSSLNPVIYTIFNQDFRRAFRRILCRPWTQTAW
Procedure, shortened: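 Recombinant human α2B receptor membranes incubated with compounds in 50 mM Tris-HCl pH 7.4, 5 mM MgCl2, 1 mM CaCl2, 0.2% BSA, 1% DMSO vehicle. Non-specific binding defined with 10 μM rauwolscine. Values are percent inhibition of specific binding or estimated Ki.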

[3] = biological target: T3, Human adrenergic α1B receptor (Homo sapiens, UniProt P35368); test: Radioligand binding, adrenergic α1B (Protocol Group B); settings: Protocol Group B
T3 sequence (P35368 1-520): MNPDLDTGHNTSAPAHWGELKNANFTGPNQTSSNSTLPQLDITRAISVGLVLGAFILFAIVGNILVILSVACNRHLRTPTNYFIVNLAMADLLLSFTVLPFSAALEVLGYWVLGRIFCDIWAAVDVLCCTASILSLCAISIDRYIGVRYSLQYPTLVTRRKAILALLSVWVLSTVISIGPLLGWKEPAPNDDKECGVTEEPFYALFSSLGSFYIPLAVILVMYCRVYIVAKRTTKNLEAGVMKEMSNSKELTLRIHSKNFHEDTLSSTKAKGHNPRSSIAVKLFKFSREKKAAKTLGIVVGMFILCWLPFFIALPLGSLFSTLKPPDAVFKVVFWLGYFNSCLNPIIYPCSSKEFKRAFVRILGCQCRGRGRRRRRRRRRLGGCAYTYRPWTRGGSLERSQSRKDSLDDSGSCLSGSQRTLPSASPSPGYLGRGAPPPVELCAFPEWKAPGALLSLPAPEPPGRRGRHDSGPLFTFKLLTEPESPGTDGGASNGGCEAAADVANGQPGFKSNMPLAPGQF
Procedure, shortened: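 Recombinant human α1B membranes incubated with test compound and 0.3 nM [3H]prazosin, 60 min at 25 °C, in 50 mM Tris-HCl pH 7.4, 10 mM MgCl2, 1 mM EDTA; nonspecific binding with 10 μM prazosin. Filter-bound radioactivity counted; values are % inhibition of specific binding or estimated Ki.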

SMILES	Percentage inhibition of ligand binding, Adrenergic α2A (0.1 μM) ([1]; 0.1 μM compound)	Percentage inhibition of ligand binding, Adrenergic α2A (0.3 μM) ([1]; 0.3 μM compound)	Percentage inhibition of ligand binding, Adrenergic α2B (10 nM) ([2]; 10 nM compound)	Percentage inhibition of ligand binding, Adrenergic α2B (30 nM) [2]	Percentage inhibition of ligand binding, Adrenergic α2B (0.1 μM) [2]	Percentage inhibition of ligand binding, Adrenergic α1B (0.1 μM) ([3]; 0.1 μM compound)	Percentage inhibition of ligand binding, Adrenergic α1B (0.3 μM) ([3]; 0.3 μM compound)	Percentage inhibition of ligand binding, Adrenergic α2B (10 nM) ([2]; 10 nM compound, 0.01 µM)	inhibition at 0.1 µM ([1]; 0.1 μM compound, read-out: Percentage inhibition of ligand binding, Adrenergic α2A (0.1 μM))	inhibition at 0.3 µM ([1]; 0.3 μM compound, read-out: Percentage inhibition of ligand binding, Adrenergic α2A (0.3 μM))	inhibition at 0.01 µM ([2]; 10 nM compound, read-out: Percentage inhibition of ligand binding, Adrenergic α2B (10 nM))	inhibition at 0.03 µM [2]	inhibition at 0.1 µM [2]	inhibition at 0.1 µM ([3]; 0.1 μM compound, read-out: Percentage inhibition of ligand binding, Adrenergic α1B (0.1 μM))	inhibition at 0.3 µM ([3]; 0.3 μM compound, read-out: Percentage inhibition of ligand binding, Adrenergic α1B (0.3 μM))
CC(O)(Cn1c2c(c3cc(Cl)cc(F)c31)C1CCCN1CC2)c1ccncc1 (single isomer, unassigned) [52c]	7%	12%	9%	11%	10%	−6%	0%								
Cc1cc(F)cc2c3c(n(CC(C)(O)c4ccncc4)c12)CC1CCCN1C3 (single isomer, unassigned) [78b]	−7%	8%		7%	22%	2%	12%	0%							
Cc1ccc2c(c1)c1c(n2CC(C)(O)c2ccncc2)CC2CCCN2C1 (single isomer, unassigned) [37d]	4%	17%		36%	68%	5%	14%	15%							
Cc1ccc2c(c1)c1c(n2CC(O)c2ccncc2F)CCN2CCCC12 (stereo not shown) [compound 14, 1-(3-fluoropyridin-4-yl)-2-(10-methyl-2,3,5,6-tetrahydro-1H-indolizino[7,8-b]indol-7 (11cH)-yl)ethanol]									71%	87%	81%	99%	101%	74%	90%
OC(Cn1c2c(c3cc(F)ccc31)C1CCCN1CC2)c1ccncc1 (single isomer, unassigned) [18c]	7%	0%		13%	22%	5%	6%	17%							
Cc1cc2c3c(n(CC(C)(O)c4ccncc4)c2cc1Cl)CCN1CCCC31 (single isomer, unassigned) [50d]	−9%	−4%		−2%	13%	−8%	4%	−8%							
Cc1cc(C)c2c(c1)c1c(n2CC(C)(O)c2ccncc2)CCN2CCCC12 (single isomer, unassigned) [19d]	−8%	−5%		−4%	−1%	−8%	−5%	−9%							
Cc1ccc2c(c1)c1c(n2CC(C)(O)c2ccc(F)cc2)CN2CCC1C2 (single isomer, unassigned) [134c]	4%			8%		8%									
CC(O)(Cn1c2c(c3cc(Cl)cc(F)c31)CN1CCCC1C2)c1cccnc1 (single isomer, unassigned) [63a]	3%	32%		55%	84%	2%	24%	25%							
Cc1ccc2c(c1)c1c(n2CC(C)(O)c2cccnc2)CC2CCCN2C1 (stereo not shown) [41d]	−7%	13%		21%	48%	−2%	−1%	9%							
CN1CCc2c(c3cc(C(F)(F)F)ccc3n2CC(OC2CCCC2)c2ccncc2)C1 (single isomer, unassigned) [60a]	26%	50%				12%	40%	23%				47%	72%		
